# Columns and labels:
# [1] = test system: GTP-binding proteins in HEK 293T cell lysates; experiment: Proteomic LC-MS/MS analysis of HEK 293T cell lysate labeled with GTP probes; parameters: species or system human
# Method: Under optimized conditions, HEK 293T cell lysates were labeled using the GTP photoaffinity probes. Peptide samples were prepared via the On-Beads enzymatic digestion method for proteomic study. Approximately 1 mg of proteins was labeled with 0.1 mM GTP probe and irradiated with 365-nm UV light for 30 min. To the solution were added freshly prepared tris-(2-carboxyethyl)phosphine (TCEP) until its concentration reached 1 mM, and a CuAAC reaction mixture to reach a final concentration of 1 mM CuSO4, 0.1 mM tris[(1-benzyl-1H-1,2,3-triazol-4-yl)methyl]amine (TBTA), and 0.5 mM biotin-PEG3-azide (for GTP-O probe labeled samples), or 0.5 mM biotin-DADPS-azide (for GTP-N probe labeled samples). The mixture was vortexed at room temperature for 2 hours and then precipitated in ice-cold methanol overnight.
# The precipitated proteins were dissolved in 100 μL 4% SDS buffer (4% SDS, 150 mM NaCl, 50 mM HEPES, pH=7.4), and diluted with 900 μL SDS-free HEPES buffer (150 mM NaCl, 50 mM HEPES, pH=7.4). High-capacity streptavidin beads (50 μL per sample) were washed three times with 20 times volume of wash buffer (150 mM sodium chloride, 50 mM HEPES, pH=7.4) before adding to the samples. After incubation on a rotary shaker at room temperature for 2 hours, non-specifically bound proteins were washed away in a centrifugal filtration column using 1× PBS containing 1% SDS, 10× PBS, 1× PBS, water, and 50 mM ammonium bicarbonate solution with 8 M urea, each wash using 1 mL of solution for five times. The beads were transferred to a centrifuge tube using 50 mM ammonium bicarbonate solution containing 8 M urea and resuspended with 500 μL of this solution. The disulfide bonds were reduced by adding 20 mM TCEP and incubating at 37° C. for 1 hour, and then alkylated with 50 mM iodacetamide at room temperature in the dark for 30 minutes. After centrifugation at 3000 rpm for 2 minutes, the supernatant was gently removed. The beads were washed with 25 mM ammonium bicarbonate three times, resuspended in 100 μL 25 mM ammonium bicarbonate, and incubated with 1 μg of MS-grade trypsin (1 μg/μL) at 37° C. for 18 hrs.
# The beads were washed with 200 μL of 25 mM ammonium bicarbonate solution, then centrifuged at 12000 rpm for 2 minutes to collect the supernatant. The procedure was repeated 6 times, and the supernatants were combined to obtain sample 1 (peptides without probe modification). For GTP-O probe labeled samples, the beads were resuspended in 200 μL of 70% acetonitrile solution containing 1% trifluoroacetic acid, vortexed for 5 minutes, then centrifuged at 12000 rpm for 2 minutes to collect the supernatant. The procedure was repeated 5 times, and the supernatants were combined to obtain sample 2 (containing probe-modified peptides). For GTP-N probe labeled samples, the beads were resuspended in 100 μL of 10% formic acid, incubated on a rotary shaker at room temperature for 30 minutes, then centrifuged at 12000 rpm for 2 minutes to collect the supernatant. The procedure was repeated 3 times, and the supernatants were combined. Trifluoroacetic acid was added to a final concentration of 1%, and incubated at 37° C. for 30 minutes to obtain sample 2. The peptide solutions were dried with a centrifugal concentrator and desalted using C18 tips, then frozen at −80° C. until LC-MS/MS detection. Samples were dissolved in 20 μL of pure water, 4 μL of sample 1 and 8 μL of sample 2 were injected for analysis.
# An EASY-nLC 1200 liquid chromatography coupled with a Q-Exactive Orbitrap mass spectrometer was employed for LC-MS/MS analysis. A homemade C18 capillary column (inner diameter 75 μm, column length 18 cm) packed with Reprosil-Pur120 C18-AQ (Dr. maisch, particle size […]) was utilized as the separation column. The precolumn (inner diameter 150 μm, column length 4 cm) was packed with Reprosil-Pur120 C18-AQ (Dr. maisch, particle size 5 μm,). The mobile phase A was 0.1% formic acid, while mobile phase B was 0.1% formic acid in 80% acetonitrile, and the flow rate was 300 nL/min. […]
# [2] = Stability analysis of the probes under three pH conditions with HPLC; assay type: physicochemical; details: acidic condition with trifluoroacetic acid (pH=3), 0.4 mM probe, 37° C.
# Method: Probes were incubated with 0.4 mM final concentration in different buffer at 37° C. for different time, and 10 μL of solution was taken out at each time point for HPLC analysis. A analytical column (Welch, Ultimate XB-C18, 5 μm, 4.6×250 mm) was used for the analysis, and untreated probes were used as controls. The mobile phase A was 50 mM […] (TEAA) buffer (pH=8), the mobile phase B was 50 mM TEAA in 30% ACN, the flow rate was 1 mL/min, the detection wavelength was 252 nm, and the column temperature was 30° C. Gradient elution conditions were as follows: 0-5 minutes, 5% B; 5-10 minutes, 5-30% B; 10-30 minutes, 30-40% B; 30-35 minutes, 40-100% B; 35-40 minutes, 100% B; 45-50 minutes, 5% B.
# [3] = test system: GTP-binding proteins in HEK 293T cell lysates; experiment: In-gel fluorescence imaging of HEK 293T cell lysate labeled with the GTP probes
# Method: Appropriate amount cells were incubated on ice for 30 min in 1% lysis buffer (1% Triton X-100, 50 mM HEPES (pH 7.4), 150 mM NaCl, supplemented with phosphatase inhibitor A, phosphatase inhibitor B, and protease inhibitor right before use) at 5-10 times the cell volume. Vortexing for 5 seconds every 10 minutes. The cell lysates were centrifuged at 12,000 rpm at 4° C. for 30 min, and the supernatants were passed through an Amersham NAP-5 column to remove endogenous nucleosides. The proteins were quantified using a Bradford protein assay kit. Approximately 100 μg protein was diluted with 0.1% lysis buffer (0.1% Triton X-100, 50 mM HEPES, 150 mM sodium chloride). To the solution was added 1 mM magnesium chloride, the GTP probe and competitors to designated concentrations. The final volume for the reaction was 100 μL and the final protein concentration was […]. After incubated on ice, the solution was irradiated with 365-nm UV light for 30 min. To the solution were added freshly prepared tris-(2-carboxyethyl)phosphine (TCEP) until its concentration reached 1 mM, and a CuAAC reaction mixture to reach a final concentration of 1 mM CuSO4, 0.1 mM tris[(1-benzyl-1H-1,2,3-triazol-4-yl)methyl]amine (TBTA), and 0.1 mM rhodamine β-PEG3-azide. The mixture was incubated at room temperature for 2 hrs and then precipitated in a solution of chloroform: methanol: water (4:3:1, v/v). After washing with cold methanol and air dried, the protein pellet was dissolved in 30 μL 4% SDS buffer (4% SDS, 50 mM HEPES (pH 7.4), 150 mM NaCl, 50 mM Trolamine). The protein concentration was determined using a BCA protein assay kit. A solution of approximately 20 μg proteins was added 4×loading buffer (0.25M Trometamol, pH=6.8, 4% SDS, 40% Glycerol, 0.02% bromophenol blue, add 200 μL 2-Mercaptoethanol to 800 μL buffer right before use), boiled at 95° C. for 5 min and loaded onto an SDS-PAGE gel (4% stacking gel, 10% separating gel). Then perform SDS-PAGE separation at a constant voltage of 90 V for about 110 minutes. At the end of electrophoresis, cut the separation gel and imaged with an Amersham Imager 600 (GE Healthcare) at 520 nm. The gel was then stained with Coomassie Brilliant Blue staining solution (0.1% Coomassie brilliant blue, 10% acetic acid, 50% methanol) for 30 min and destained with destaining solution (10% acetic acid, 30% methanol) to remove background color.
# [4] = three biological replicates, 0.1 mM probe, control probe = GTP-ctrl probe
smiles,measurement,setting,value
C#CCCC1(CCNP(=O)(O)OP(=O)(O)OP(=O)(O)OC[C@H]2O[C@@H](n3cnc4c(=O)[nH]c(N)nc43)C(O)[C@H]2O)N=N1 (stereo partly shown) [GTP-N probe],probe-modified sites on labeled proteins,[1]; LC-MS/MS of sample 2 (probe-modified peptides),several modified peptides of GTP-binding proteins were identified
same,selectivity for annotated GTP-binding proteins,"[1]; competition with GTP at 10 times probe concentration, LFQ, three biological replicates",better selectivity than the GTP-O probe
same,GTP-binding proteins identified,[1]; [4],115
same,total proteins identified,[1]; [4],2461
same,time after which probe decomposed,[2],0.5 h
same,protein labeling (in-gel fluorescence),"[3]; 0.1 mM probe, 1 mM MgCl2, FIG. 10a",stronger protein labeling compared to the GTP-O probe
same,probe concentration at which cell lysate is effectively labeled,"[3]; FIG. 9a (GTP-N probe), 365 nm UV, in-gel fluorescence",50 µM
